Reference: patent US11964990B2, “1,3,4,7-tetrahydro-2H-pyrrolo[3′,2′:5,6]pyrido[2,3-b][1,4]oxazepine bcl-2 inhibitors” (AbbVie Inc., priority 2022, dated 2024)

Assays:
RS4;11 cells = assay: Cell viability assay (CellTiter-Glo) in RS4;11 cell line; assay type: cell-based; settings: 24 hours, 10% Human Serum, 50% decrease in cell viability
Description: (§1) The acute lymphoblastic leukemia (ALL) human cell line RS4;11 (ATCC, Manassas VA) was used as the primary human cell line to assess the cellular activity of compound of the present Examples in vitro and their efficacy in vivo. BH3 profiling, a mitochondrial assay that classifies blocks in the intrinsic apoptotic pathway, has shown that RS4;11 cells were highly dependent on Bcl-2 protein for survival and were sensitive to a Bcl-2 inhibitor (Blood. 2008; 111(4):2300-2309). […] The acute lymphoblastic leukemia cell line Molt-4, which is derived from immature T-lymphoid cells (T-ALL), was used as a counter screen assay.
(§2) Frozen RS4;11 or Molt-4 cells (ATCC, Manassas, VA, USA) were thawed overnight in RPMI 1640 media (Thermo Fisher Scientific, Waltham, MA, USA) supplemented with 1% penicillin/streptomycin (Thermo Fisher Scientific, Waltham, MA, USA), and 10% Human Serum (Sigma, St. Louis, MO, USA). 3000 Cells (0.1×10^6/mL) were seeded in each well of 384-well plate and were treated for 24 hours in a humidified chamber with 5% CO2. Cell viability was determined by CellTiter-Glo as described by the manufacturer's instructions (Promega Corporation, Madison, WI, USA). Responses were determined as a percentage of the control treated cells and the effective concentration (EC50) to induce a 50% decrease in cell viability were determined from sigmoidal dose-response curves using Dotmatics (Dotmatics Software Company, Bishops Stortford, Hertfordshire, England).

Molt-4 cells = assay: Cell viability counter screen assay (CellTiter-Glo) in Molt-4 cells; assay type: cell-based; settings: 24 hours, 10% Human Serum, 50% decrease in cell viability
Description: as §1, §2

| SMILES | EC50 (RS4;11 cells) | EC50 (Molt-4 cells) |
| --- | --- | --- |
| CO[C@H]1CC[C@H](CNc2ccc(S(=O)(=O)NC(=O)c3ccc(N4CCN5CC6=C(c7ccc(Cl)cc7)CC(C)(C)C[C@H]6OCCCOC[C@@H]5C4)cc3N3CCCOc4nc5[nH]ccc5cc43)cc2[N+](=O)[O-])OC1 [Example 13, 4-((4aS,10aR)-14-(4-chlorophenyl)-12,12-dimethyl-1,2,4a,5,8,9,10a,11,13,15-decahydro-7H,12H-benzo[f]pyrazino[2,1-c][1,8]dioxa[4]azacycloundecin-3(4H)-yl)-2-(3,4-dihydro-2H-pyrrolo[3′,2′:5,6]pyrido[2,3-b][1,4]oxazepin-1(7H)-yl)-N-((4-((((2R,5S)-5-methoxytetrahydro-2H-pyran-2-yl)methyl)amino)-3-nitrophenyl)sulfonyl)benzamide] | 2.95 nM | 1700 nM |
| CC1(C)CC(c2ccc(Cl)cc2)=C2CN3CCN(c4ccc(C(=O)NS(=O)(=O)c5ccc(NC[C@H]6C[C@](O)(C7CCC7)C6)c([N+](=O)[O-])c5)c(N5CCCOc6nc7[nH]ccc7cc65)c4)C[C@H]3COCCCO[C@@H]2C1 [Example 15, 4-((4aS,10aR)-14-(4-chlorophenyl)-12,12-dimethyl-1,2,4a,5,8,9,10a,11,13,15-decahydro-7H,12H-benzo[f]pyrazino[2,1-c][1,8]dioxa[4]azacycloundecin-3(4H)-yl)-2-(3,4-dihydro-2H-pyrrolo[3′,2′:5,6]pyrido[2,3-h][1,4]oxazepin-1(7H)-yl)-N-((4-((((1s,3s)-1-hydroxy-[1,1′-bi(cyclobutan)]-3-yl)methyl)amino)-3-nitrophenyl)sulfonyl)benzamide] | 5.64 nM | 2550 nM |
| CC1(C)CC(c2ccc(Cl)cc2)=C2CN3CCN(c4ccc(C(=O)NS(=O)(=O)c5ccc(OCC6(F)CCN(C7COC7)CC6)c([N+](=O)[O-])c5)c(N5CCCOc6nc7[nH]ccc7cc65)c4)C[C@H]3COCCCO[C@@H]2C1 [Example 19, 4-((4aS,10aR)-14-(4-chlorophenyl)-12,12-dimethyl-1,2,4a,5,8,9,10a,11,13,15-decahydro-7H,12H-benzo[f]pyrazino[2,1-c][1,8]dioxa[4]azacycloundecin-3(4H)-yl)-2-(3,4-dihydro-2H-pyrrolo[3′,2′:5,6]pyrido[2,3-b][1,4]oxazepin-1(7H)-yl)-N-((4-((4-fluoro-1-(oxetan-3-yl)piperidin-4-yl)methoxy)-3-nitrophenyl)sulfonyl)benzamide] | 0.881 nM | 132 nM |
| C[C@@H]1CC[C@H](CNc2ccc(S(=O)(=O)NC(=O)c3ccc(N4CCN5CC6=C(c7ccc(Cl)cc7)CC(C)(C)C[C@H]6OCCCOC[C@@H]5C4)cc3N3CCCOc4nc5[nH]ccc5cc43)cc2[N+](=O)[O-])OC1 [Example 21, 4-((4aS,10aR)-14-(4-chlorophenyl)-12,12-dimethyl-1,2,4a,5,8,9,10a,11,13,15-decahydro-7H,12H-benzo[f]pyrazino[2,1-c][1,8]dioxa[4]azacycloundecin-3(4H)-yl)-2-(3,4-dihydro-2H-pyrrolo[3′,2′:5,6]pyrido[2,3-b][1,4]oxazepin-1(7H)-yl)-N-((4-((((2R,5R)-5-methyltetrahydro-2H-pyran-2-yl)methyl)amino)-3-nitrophenyl)sulfonyl)benzamide] | 4.89 nM | 3280 nM |
| COCCN1CCC(F)(COc2ncc(S(=O)(=O)NC(=O)c3ccc(N4CCN5CC6=C(c7ccc(Cl)cc7)CC(C)(C)C[C@H]6OCCCOC[C@@H]5C4)cc3N3CCCOc4nc5[nH]ccc5cc43)cc2Cl)CC1 [Example 22, N-((5-chloro-6-((4-fluoro-1-(2-methoxyethyl)piperidin-4-yl)methoxy)pyridin-3-yl)sulfonyl)-4-((4aS,10aR)-14-(4-chlorophenyl)-12,12-dimethyl-1,2,4a,5,8,9,10a,11,13,15-decahydro-7H,12H-benzo[f]pyrazino[2,1-c][1,8]dioxa[4]azacycloundecin-3(4H)-yl)-2-(3,4-dihydro-2H-pyrrolo[3′,2′:5,6]pyrido[2,3-b][1,4]oxazepin-1(7H)-yl)benzamide] | 2.78 nM | 755 nM |

Now from value to compound, other results behind:

| EC50 (RS4;11 cells) | SMILES | EC50 (Molt-4 cells) |
| --- | --- | --- |
| 1.51 nM | CC1(C)CC(c2ccc(Cl)cc2)=C2CN3CCN(c4ccc(C(=O)NS(=O)(=O)c5ccc(NC[C@H]6C[C@](O)(CF)C6)c([N+](=O)[O-])c5)c(N5CCCOc6nc7[nH]ccc7cc65)c4)C[C@H]3COCCCO[C@@H]2C1 [Example 16, 4-((4aS,10aR)-14-(4-chlorophenyl)-12,12-dimethyl-1,2,4a,5,8,9,10a,11,13,15-decahydro-7H,12H-benzo[f]pyrazino[2,1-c][1,8]dioxa[4]azacycloundecin-3(4H)-yl)-2-(3,4-dihydro-2H-pyrrolo[3′,2′:5,6]pyrido[2,3-h][1,4]oxazepin-1(7H)-yl)-N-((4-((((1s,3s)-3-(fluoromethyl)-3-hydroxycyclobutyl)methyl)amino)-3-nitrophenyl)sulfonyl)benzamide] | 1260 nM |
| 2.82 nM | CC1(C)CC(c2ccc(Cl)cc2)=C2CN3CCN(c4ccc(C(=O)NS(=O)(=O)c5ccc(NCC6(O)COC6)c([N+](=O)[O-])c5)c(N5CCCOc6nc7[nH]ccc7cc65)c4)C[C@H]3COCCCO[C@@H]2C1 [Example 17, 4-((4aS,10aR)-14-(4-chlorophenyl)-12,12-dimethyl-1,2,4a,5,8,9,10a,11,13,15-decahydro-7H,12H-benzo[f]pyrazino[2,1-c][1,8]dioxa[4]azacycloundecin-3(4H)-yl)-2-(3,4-dihydro-2H-pyrrolo[3′,2′:5,6]pyrido[2,3-b][1,4]oxazepin-1(7H)-yl)-N-((4-(((3-hydroxyoxetan-3-yl)methyl)amino)-3-nitrophenyl)sulfonyl)benzamide] | 723 nM |
| 1.43 nM | CC1(C)CC(c2ccc(Cl)cc2)=C2CN3CCN(c4ccc(C(=O)NS(=O)(=O)c5ccc(NCC6(O)CCOCC6)c([N+](=O)[O-])c5)c(N5CCCOc6nc7[nH]ccc7cc65)c4)C[C@H]3COCCCO[C@@H]2C1 [Example 18, 4-((4aS,10aR)-14-(4-chlorophenyl)-12,12-dimethyl-1,2,4a,5,8,9,10a,11,13,15-decahydro-7H,12H-benzo[f]pyrazino[2,1-c][1,8]dioxa[4]azacycloundecin-3(4H)-yl)-2-(3,4-dihydro-2H-pyrrolo[3′,2′:5,6]pyrido[2,3-b][1,4]oxazepin-1(7H)-yl)-N-((4-(((4-hydroxytetrahydro-2H-pyran-4-yl)methyl)amino)-3-nitrophenyl)sulfonyl)benzamide] | 426 nM |
| 5.21 nM | C[C@@H]1CO[C@@H](COc2ccc(S(=O)(=O)NC(=O)c3ccc(N4CCN5CC6=C(c7ccc(Cl)cc7)CC(C)(C)C[C@H]6OCCCOC[C@@H]5C4)cc3N3CCCOc4nc5[nH]ccc5cc43)cc2[N+](=O)[O-])CO1 [Example 20, 4-((4aS,10aR)-14-(4-chlorophenyl)-12,12-dimethyl-1,2,4a,5,8,9,10a,11,13,15-decahydro-7H,12H-benzo[f]pyrazino[2,1-c][1,8]dioxa[4]azacycloundecin-3(4H)-yl)-2-(3,4-dihydro-2H-pyrrolo[3′,2′:5,6]pyrido[2,3-b][1,4]oxazepin-1(7H)-yl)-N-((4-(((2R,5R)-5-methyl-1,4-dioxan-2-yl)methoxy)-3-nitrophenyl)sulfonyl)benzamide] | 1610 nM |
